Measured values taken from US20260273047A1, “COMPOSITIONS AND METHODS FOR AMELIORATING ADVERSE EFFECTS OF THERAPIES” (MDX Management LLC, priority 2023, published 2026).
Entries after “also recorded” stand apart in the source; their conditions may differ.

Experiments:
MC38 = MC38 tumors treated intratumorally with TPI-1 and T cell activating agents; format: in vivo, C57Bl/6 mice
Procedure: Inhibition of SHP-1 was tested in vivo for tumor therapies. […] Tumor growth was measured over time until the tumors reached 2.0 cm in diameters. […] Anti-PD-1 antibody was 205[…] 50 μg by intratumoral injection every 3 days. Anti-CD3 antibody and anti-CD28 antibody were each 205[…] 50 μg by intratumoral injection in a single dose.

4T1 breast cancer = format: in vivo; conditions: lotion twice a day; anti-PD-1 100 μg i.p. every three days; all groups prophylactic anti-TNFα mAb
Procedure: Efficacy of topical treatments against tumor growth and/or progression was tested using murine models of cutaneous/subcutaneous breast cancer. […] Palpable tumors were formed in 10-15 days and were traced by bioluminescence imaging. Tumor sizes were measured manually, and the volume was calculated by the equation=[length (mm)×width (mm)×width (mm)]/2. Once the total tumor volume reached ≥200 mm^3, treatments were started.
Treatment groups included: (i) Control treatment (ctl.), wherein mice received topical non-drug lotion (vehicle) only; (ii) αPD-1 treatment, wherein mice received topical non-drug lotion (vehicle) treatment along with 100 μg of anti-PD-1 monoclonal antibody once every three days through intraperitoneal injection; (iii) Topical treatment with TLR agonists only (i.e. Condition A), wherein mice received aTLR (Resiquimod (R848) and polyI:C) prepared in Johnson's lotion, each at 100 μg/ml in a final volume of 100-200 μL lotion: (iv) Topical treatment with SHP-1 inhibitors only (i.e. Condition B), wherein mice received deuterated TPI-1 (dTPI-1) at 100 μg/ml in a final volume of 100-200 μL lotion; (v) Topical treatment with Conditions A+B only in a final volume of 100-200 μL lotion; and (vi) Topical treatment with Conditions A+B in a final volume of 100-200 μL lotion and systemic αPD-1 treatment. […]

[1] = system: malignant melanoma and advanced malignancies; conditions: cited from earlier work

In the case of `O=C1C=CC(=O)C(c2cc(Cl)ccc2Cl)=C1` [TPI-1, 2-(2,5-dichlorophenyl)benzoquinone], the “effect of adding TPI-1 to αPD-1, IL-2, anti-CD3/CD28 or αPD-1+IL-2” value (MC38; TPI-1 1 mg/kg every 2 days, 1 mg/kg) was “enabled the intratumoral injection of αPD-1, IL-2, or anti-CD3/CD28 to achieve strong anti-tumor effects; also recorded: instantly overcame treatment resistance”, the “effect on established tumors, such as MC38, KPC, or LLC” value (MC38; agent alone) was “only minor effects” and the “MC38 tumor growth / resistance” value (MC38; intratumoral, agent without SHP-1 inhibitor, or TPI-1 alone (1 mg/kg every 2 days)) was “did not attenuate tumor growth; also recorded: did not stop tumor progression”.

In the case of `[2H]C1=C([2H])C(=O)C(c2c([2H])c(Cl)c([2H])c([2H])c2Cl)=C([2H])C1=O` [dTPI-1], the “4T1 tumor growth / progression” value (4T1 breast cancer) was “only slightly delayed tumor progression”.

For `O.O.O.O.O.O.O.O.O.O=C([O-])[C@@H]1[O][Sb]2([O-])([O][Sb]34([OH])[O][C@H]([C@H](O)CO)[C@H]([O]3)[C@H](C(=O)[O-])[O]4)[O][C@H]([C@H](O)CO)[C@@H]1[O]2.[Na+].[Na+].[Na+]` [SSG, sodium stibogluconate], the “most common toxic side-effects, frequency” value ([1]; thrombocytopenia, elevated serum lipase, fatigue, fever, chills, anemia, hypokalemia, pancreatitis, skin rash) is given as “up to 68 % of patients” and the “effect against tumor development” value ([1]; with interferons, followed or not by chemotherapy) is given as “no effect was seen against tumor development”.
